≈ marks a conversion by molar mass, not a printed value. Where two headings read alike, the source gives them in different places.
Assays:
[1] = system: vancomycin-sensitive Staphylococcus aureus Newman strain; assay: In vitro antibacterial activity assay (MIC, CLSI dilution method); format: cell-based; conditions: S. aureus Newman, 37° C., 16 h; for MIC: Staphylococcus aureus
[2] = system: vancomycin-middle resistant Staphylococcus aureus Mu50 strain; assay: as above; format: cell-based
[3] = Staphylococcus aureus, 16 h, S. aureus Mu50, 37° C., read-out: MIC Mu50
[4] = Staphylococcus aureus, 16 h, read-out: MIC Mu50

Row | Compound | MIC ([1]; NEWMAN) [µg/mL] | MIC [2, 3] [µg/mL] | other results
1 | CN[C@H](CC(C)C)C(=O)N[C@H]1C(=O)N[C@@H](CC(N)=O)C(=O)N[C@H]2C(=O)N[C@H]3C(=O)N[C@H](C(=O)N[C@H](C(=O)O)c4cc(O)c(CNCCCNC(=O)[C@H](O)[C@@H](O)[C@H](O)[C@H](O)CO)c(O)c4-c4cc3ccc4O)[C@H](O)c3ccc(c(Cl)c3)Oc3cc2cc(c3OC2O[C@H](CO)C(O)C(O)[C@H]2O[C@@H]2CC(C)[C@@H](O)C(C)(NCc3ccc(C#C[Si](C)(C)C)cc3)C2)Oc2ccc(cc2Cl)[C@H]1O (stereo partly drawn) [Van028] |  |  | MIC [1]: 1 µg/mL (≈ 0.527 µM); MIC ([2]; Staphylococcus aureus; S. aureus Mu50, 37° C., 16 h; read-out: MIC Mu50): 2 µg/mL (≈ 1.05 µM)
2 | CN[C@H](CC(C)C)C(=O)N[C@H]1C(=O)N[C@@H](CC(N)=O)C(=O)N[C@H]2C(=O)N[C@H]3C(=O)N[C@H](C(=O)N[C@H](C(=O)O)c4cc(O)c(CNCCO[C@@H]5OC(CO)[C@H](O)C(O)C5O)c(O)c4-c4cc3ccc4O)[C@H](O)c3ccc(c(Cl)c3)Oc3cc2cc(c3OC2O[C@H](CO)C(O)C(O)[C@H]2O[C@@H]2CC(C)[C@@H](O)C(C)(NCc3ccc(-c4ccc(Cl)cc4)cc3)C2)Oc2ccc(cc2Cl)[C@H]1O (stereo partly drawn) [Van011] | ≤ 0.0625 | 1 (≈ 0.531 µM) | 
3 | CCCCCCCCCCNCCNC1(C)C[C@H](O[C@H]2C(Oc3c4cc5cc3Oc3ccc(cc3Cl)[C@@H](O)[C@@H](NC(=O)[C@@H](CC(C)C)NC)C(=O)N[C@@H](CC(N)=O)C(=O)N[C@H]5C(=O)N[C@H]3C(=O)N[C@H](C(=O)N[C@H](C(=O)O)c5cc(O)c(CNCCO[C@@H]6OC(CO)[C@@H](O)C(O)C6NC(C)=O)c(O)c5-c5cc3ccc5O)[C@H](O)c3ccc(c(Cl)c3)O4)O[C@H](CO)C(O)C2O)OC(C)[C@H]1O (stereo partly drawn) [Van003] | 4 (≈ 2.1 µM) | 16 (≈ 8.38 µM) | 
4 | CCCCCCCCCNC1(C)C[C@H](O[C@H]2C(Oc3c4cc5cc3Oc3ccc(cc3Cl)[C@@H](O)[C@@H](NC(=O)[C@@H](CC(C)C)NC)C(=O)N[C@@H](CC(N)=O)C(=O)N[C@H]5C(=O)N[C@H]3C(=O)N[C@H](C(=O)N[C@H](C(=O)O)c5cc(O)c(CNCCCNC(=O)[C@H](O)[C@@H](O)[C@H](O)[C@H](O)CO)c(O)c5-c5cc3ccc5O)[C@H](O)c3ccc(c(Cl)c3)O4)O[C@H](CO)C(O)C2O)CC(C)[C@H]1O (stereo partly drawn) [Van019] | 0.5 (≈ 0.272 µM) | 2 (≈ 1.09 µM) | 
5 | CCCCCCCCCCNCCNC1(C)C[C@H](O[C@H]2C(Oc3c4cc5cc3Oc3ccc(cc3Cl)[C@@H](O)[C@@H](NC(=O)[C@@H](CC(C)C)NC)C(=O)N[C@@H](CC(N)=O)C(=O)N[C@H]5C(=O)N[C@H]3C(=O)N[C@H](C(=O)N[C@H](C(=O)O)c5cc(O)c(CNCCCNC(=O)[C@H](O)[C@@H](O)[C@H](O)[C@H](O)CO)c(O)c5-c5cc3ccc5O)[C@H](O)c3ccc(c(Cl)c3)O4)O[C@H](CO)C(O)C2O)OC(C)[C@H]1O (stereo partly drawn) [Van009] | 0.5 (≈ 0.264 µM) | 1 (≈ 0.527 µM) | 
6 | CN[C@H](CC(C)C)C(=O)N[C@H]1C(=O)N[C@@H](CC(N)=O)C(=O)N[C@H]2C(=O)N[C@H]3C(=O)N[C@H](C(=O)NC(C(=O)NCCCN(C)C)c4cc(O)c(CNCCCNC(=O)[C@H](O)[C@@H](O)[C@H](O)[C@H](O)CO)c(O)c4-c4cc3ccc4O)[C@H](O)c3ccc(c(Cl)c3)Oc3cc2cc(c3OC2O[C@H](CO)C(O)C(O)[C@H]2O[C@H]2CC(C)(NCc3ccc(-c4ccc(Cl)cc4)cc3)[C@H](O)C(C)O2)Oc2ccc(cc2Cl)[C@H]1O (stereo partly drawn) [Van022] | 1 (≈ 0.5 µM) | 2 (≈ 1 µM) | 
7 | CN[C@H](CC(C)C)C(=O)N[C@H]1C(=O)N[C@@H](CC(N)=O)C(=O)N[C@H]2C(=O)N[C@@H]3C(=O)N[C@H](C(=O)N[C@H](C(=O)O)c4cc(O)c(CNCCCNC(=O)[C@H](O)[C@@H](O)[C@H](O[C@@H]5OC(CO)[C@H](O)C(O)[C@@H]5O)[C@H](O)CO)c(O)c4-c4cc3ccc4O)[C@H](O)c3ccc(c(Cl)c3)Oc3cc2cc(c3OC2O[C@H](CO)C(O)C(O)[C@H]2O[C@H]2CC(C)(NCc3ccc(-c4ccc(Cl)cc4)cc3)[C@H](O)C(C)O2)Oc2ccc(cc2Cl)[C@H]1O (stereo partly drawn) [Van015] |  |  | MIC [1]: 0.25 µg/mL (≈ 0.12 µM); MIC [2, 4]: 0.5 µg/mL (≈ 0.241 µM)
8 | CCCCCCCCCCC(=O)NC1(C)C[C@H](O[C@H]2C(Oc3c4cc5cc3Oc3ccc(cc3Cl)[C@@H](O)[C@@H](NC(=O)[C@@H](CC(C)C)NC)C(=O)N[C@@H](CC(N)=O)C(=O)N[C@H]5C(=O)N[C@H]3C(=O)N[C@H](C(=O)N[C@H](C(=O)O)c5cc(O)c(CNCCCNC(=O)[C@H](O)[C@@H](O)[C@H](O)[C@H](O)CO)c(O)c5-c5cc3ccc5O)[C@H](O)c3ccc(c(Cl)c3)O4)O[C@H](CO)C(O)C2O)CC(C)[C@H]1O (stereo partly drawn) [Van025] | 16 (≈ 8.51 µM) | 32 (≈ 17 µM) | 
9 | CCCCCCCCCCNCCNC1(C)C[C@H](O[C@H]2C(Oc3c4cc5cc3Oc3ccc(cc3Cl)[C@@H](O)[C@@H](NC(=O)[C@@H](CC(C)C)NC)C(=O)N[C@@H](CC(N)=O)C(=O)N[C@H]5C(=O)N[C@H]3C(=O)N[C@H](C(=O)N[C@H](C(=O)O)c5cc(O)c(CNCCOC6OC(CO)[C@@H](O)C(O)C6O)c(O)c5-c5cc3ccc5O)[C@H](O)c3ccc(c(Cl)c3)O4)O[C@H](CO)C(O)C2O)OC(C)[C@H]1O (stereo partly drawn) [Van001] | 1 (≈ 0.535 µM) | 2 (≈ 1.07 µM) | 
10 | CCCCCCCCCCNCCNC1(C)C[C@H](O[C@@H]2C(O)C(O)[C@@H](CO)O[C@H]2Oc2c3cc4cc2Oc2ccc(cc2Cl)[C@@H](O)[C@@H](NC(=O)[C@@H](CC(C)C)NC)C(=O)N[C@@H](CC(N)=O)C(=O)N[C@H]4C(=O)N[C@@H]2C(=O)N[C@H](C(=O)N[C@H](C(=O)O)c4cc(O)c(CNC5C(O)OC(CO)[C@@H](O)[C@@H]5O)c(O)c4-c4cc2ccc4O)[C@H](O)c2ccc(c(Cl)c2)O3)O[C@@H](C)[C@H]1O (stereo partly drawn) [Van007] |  |  | MIC Newman [1]: 4 µg/mL (≈ 2.19 µM); MIC Mu50 ([2]; S. aureus Mu50, 37° C., 16 h): 8 µg/mL (≈ 4.39 µM)
11 | CCCCOc1ccc(CNC2(C)C[C@H](O[C@H]3C(Oc4c5cc6cc4Oc4ccc(cc4Cl)[C@@H](O)[C@@H](NC(=O)[C@@H](CC(C)C)NC)C(=O)N[C@@H](CC(N)=O)C(=O)N[C@H]6C(=O)N[C@H]4C(=O)N[C@H](C(=O)N[C@H](C(=O)O)c6cc(O)c(CNCCCNC(=O)[C@H](O)[C@@H](O)[C@H](O)[C@H](O)CO)c(O)c6-c6cc4ccc6O)[C@H](O)c4ccc(c(Cl)c4)O5)O[C@H](CO)C(O)C3O)CC(C)[C@H]2O)cc1 (stereo partly drawn) [Van030] | 1 (≈ 0.534 µM) | 2 (≈ 1.07 µM) | 
12 | CN[C@H](CC(C)C)C(=O)N[C@H]1C(=O)N[C@@H](CC(N)=O)C(=O)N[C@H]2C(=O)N[C@H]3C(=O)N[C@H](C(=O)N[C@H](C(=O)O)c4cc(O)c(CNCCCNC(=O)[C@H](O)[C@@H](O)[C@H](O)[C@H](O)CO)c(O)c4-c4cc3ccc4O)[C@H](O)c3ccc(c(Cl)c3)Oc3cc2cc(c3OC2O[C@H](CO)C(O)C(O)[C@H]2O[C@@H]2CC(C)[C@@H](O)C(C)(NCc3cccc4ccccc34)C2)Oc2ccc(cc2Cl)[C@H]1O (stereo partly drawn) [Van027] | 1 (≈ 0.54 µM) | 4 (≈ 2.16 µM) | 
13 | CN[C@H](CC(C)C)C(=O)N[C@H]1C(=O)N[C@@H](CC(N)=O)C(=O)N[C@H]2C(=O)N[C@@H]3C(=O)N[C@H](C(=O)NC(C(=O)NCCCN(C)C)c4cc(O)cc(O)c4-c4cc3ccc4O)[C@H](O)c3ccc(c(Cl)c3)Oc3cc2cc(c3OC2O[C@H](CO)C(O)C(O)[C@H]2O[C@H]2CC(C)(NCc3ccc(-c4ccc(Cl)cc4)cc3)[C@H](O)C(C)O2)Oc2ccc(cc2Cl)[C@H]1O (stereo partly drawn) [Van020] |  |  | MIC [1]: 1 µg/mL (≈ 0.577 µM); MIC [2, 4]: 1 µg/mL (≈ 0.577 µM)
14 | CCCCCCCCCCNC1(C)C[C@H](O[C@@H]2C(O)C(O)[C@@H](CO)O[C@H]2Oc2c3cc4cc2Oc2ccc(cc2Cl)[C@@H](O)[C@@H](NC(=O)[C@@H](CC(C)C)NC)C(=O)N[C@@H](CC(N)=O)C(=O)N[C@H]4C(=O)N[C@@H]2C(=O)N[C@H](C(=O)N[C@H](C(=O)O)c4cc(O)c(CNC5C(O)OC(CO)[C@H](O)[C@@H]5O)c(O)c4-c4cc2ccc4O)[C@H](O)c2ccc(c(Cl)c2)O3)O[C@@H](C)[C@H]1O (stereo partly drawn) [Van034] | ≤ 0.0625 | 0.25 (≈ 0.14 µM) | 
15 | CCCCCCCCCCNCCNC1(C)C[C@H](O[C@@H]2C(O)C(O)[C@@H](CO)O[C@H]2Oc2c3cc4cc2Oc2ccc(cc2Cl)[C@@H](O)[C@@H](NC(=O)[C@@H](CC(C)C)NC)C(=O)N[C@@H](CC(N)=O)C(=O)N[C@H]4C(=O)N[C@@H]2C(=O)N[C@H](C(=O)N[C@H](C(=O)O)c4cc(O)c(CNC5C(O)OC(CO)[C@H](O)[C@@H]5O)c(O)c4-c4cc2ccc4O)[C@H](O)c2ccc(c(Cl)c2)O3)O[C@@H](C)[C@H]1O (stereo partly drawn) [Van008] | ≤ 0.0625 | 0.25 (≈ 0.137 µM) | 
16 | CCCCCCCCCCNCCNC1(C)C[C@H](O[C@@H]2C(O)C(O)[C@@H](CO)O[C@H]2Oc2c3cc4cc2Oc2ccc(cc2Cl)[C@@H](O)[C@@H](NC(=O)[C@@H](CC(C)C)NC)C(=O)N[C@@H](CC(N)=O)C(=O)N[C@H]4C(=O)N[C@@H]2C(=O)N[C@H](C(=O)N[C@H](C(=O)O)c4cc(O)c(CNCCO)c(O)c4-c4cc2ccc4O)[C@H](O)c2ccc(c(Cl)c2)O3)O[C@@H](C)[C@H]1O (stereo partly drawn) [Van005] | 1 (≈ 0.586 µM) | 4 (≈ 2.35 µM) | 
17 | CN[C@H](CC(C)C)C(=O)N[C@H]1C(=O)N[C@@H](CC(N)=O)C(=O)N[C@H]2C(=O)N[C@H]3C(=O)N[C@H](C(=O)N[C@H](C(=O)NCCCN(C)C)c4cc(O)c(CNCCOC5OC(CO)[C@@H](O)C(O)C5O)c(O)c4-c4cc3ccc4O)[C@H](O)c3ccc(c(Cl)c3)Oc3cc2cc(c3OC2O[C@H](CO)C(O)C(O)[C@H]2O[C@H]2CC(C)(NCc3ccc(-c4ccc(Cl)cc4)cc3)[C@H](O)C(C)O2)Oc2ccc(cc2Cl)[C@H]1O (stereo partly drawn) [Van021] | 2 (≈ 1.02 µM) | 4 (≈ 2.03 µM) | 
18 | CCCCCCCCCCNCCNC1(C)C[C@H](O[C@H]2C(Oc3c4cc5cc3Oc3ccc(cc3Cl)[C@@H](O)[C@@H](NC(=O)[C@@H](CC(C)C)NC)C(=O)N[C@@H](CC(N)=O)C(=O)N[C@H]5C(=O)N[C@H]3C(=O)N[C@H](C(=O)N[C@H](C(=O)O)c5cc(O)c(CNCCCNC(=O)[C@H](O)[C@@H](O)[C@H](O[C@@H]6OC(CO)[C@H](O)C(O)C6O)[C@H](O)CO)c(O)c5-c5cc3ccc5O)[C@H](O)c3ccc(c(Cl)c3)O4)O[C@H](CO)C(O)C2O)OC(C)[C@H]1O (stereo partly drawn) [Van010] | 0.25 (≈ 0.121 µM) | 1 (≈ 0.486 µM) | 

Source: patent US10961278B2, “Vancomycin derivative, preparation method, pharmaceutical composition and use thereof” (SHANGHAI INSTITUTE OF MATERIA MEDICA, CHINESE ACADEMY OF …, priority 2016, dated 2021)
